Here are results for 25 compounds from PubChem BioAssay AID256 (DTP/NCI, 2004).

“And” between values parts separate entries of the source, which are not always exact repeats. Equal entries are not always repeated. Toxic doses and inconclusive results are not listed.

This assay has as its system CD2F1 mice, L1210 leukemia ip, survival T/C. The experiment in a line: NCI In Vivo Anticancer Drug Screen. Data for tumor model L1210 Leukemia (intraperitoneal) in CD2F1 (CDF1) mice. To be noted: endpoint: mean survival time, higher = longer survival. In a few lines: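 Each value reflects a quotient of treated over vehicle control outcomes in mice with a transplanted tumor.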

[1] abbreviates: dose: 25.0 mg/kg/injection, schedule: Q01DX009 (ip), vehicle: saline with Tween-80.
Where [2] appears, read: dose: 50.0 mg/kg/injection, schedule: Q01DX009 (ip), vehicle: saline with Tween-80.
[3] abbreviates: dose: 100.0 mg/kg/injection, schedule: Q01DX009 (ip), vehicle: saline with Tween-80.
[4] abbreviates: dose: 100.0 mg/kg/injection, schedule: Q04DX003 (ip), vehicle: saline with Tween-80.
Setting [5] is: dose: 100.0 mg/kg/injection, schedule: Q04DX003 (ip), vehicle: saline.
[6] abbreviates: dose: 100.0 mg/kg/injection, schedule: Q04DX002 (ip), vehicle: saline with Tween-80.
Setting [7] is: dose: 400.0 mg/kg/injection, schedule: Q04DX002 (ip), vehicle: saline with Tween-80.
Setting [8] is: dose: 100.0 mg/kg/injection, schedule: Q01DX001 (ip), vehicle: saline with Tween-80.
The mark [9] stands for this setting: dose: 200.0 mg/kg/injection, schedule: Q01DX001 (ip), vehicle: saline with Tween-80.
The mark [10] stands for this setting: dose: 400.0 mg/kg/injection, schedule: Q01DX001 (ip), vehicle: saline with Tween-80.
[11] abbreviates: dose: 25.0 mg/kg/injection, schedule: Q04DX002 (ip), vehicle: saline with Tween-80.
The mark [12] stands for this setting: dose: 12.5 mg/kg/injection, schedule: Q01DX009 (ip), vehicle: saline with Tween-80.
[13] abbreviates: dose: 50.0 mg/kg/injection, schedule: Q04DX002 (ip), vehicle: saline with Tween-80.
The mark [14] stands for this setting: dose: 200.0 mg/kg/injection, schedule: Q04DX002 (ip), vehicle: saline with Tween-80.
Where [15] appears, read: dose: 6.25 mg/kg/injection, schedule: Q01DX009 (ip), vehicle: saline with Tween-80.
Where [16] appears, read: dose: 200.0 mg/kg/injection, schedule: Q04DX003 (ip), vehicle: saline with Tween-80.
Setting [17] is: dose: 12.5 mg/kg/injection, schedule: Q01DX005 (ip), vehicle: distilled water + Tween-80.
Setting [18] is: dose: 25.0 mg/kg/injection, schedule: Q01DX005 (ip), vehicle: distilled water + Tween-80.
[19] abbreviates: dose: 50.0 mg/kg/injection, schedule: Q01DX005 (ip), vehicle: distilled water + Tween-80.
The mark [20] stands for this setting: dose: 100.0 mg/kg/injection, schedule: Q01DX005 (ip), vehicle: distilled water + Tween-80.
Setting [21] is: dose: 200.0 mg/kg/injection, schedule: Q01DX005 (ip), vehicle: distilled water + Tween-80.
Where [22] appears, read: dose: 400.0 mg/kg/injection, schedule: Q04DX003 (ip), vehicle: saline with Tween-80.

On to `CCN(CC)CC#CCCCCN(CC)CC`, for which the T/C by setting is: under setting [1], 101 % of control; (dose: 25.0 mg/kg/injection, schedule: Q04DX003 (ip), vehicle: saline) 96 % of control; under setting [2], 95 % of control; (dose: 50.0 mg/kg/injection, schedule: Q04DX003 (ip), vehicle: saline) 94 % of control; under setting [3], 93 % of control; under setting [4], 94 % of control. The T/C under setting [5] is 94 % of control.

As for `O=C(Nc1ccc(Cl)c(Cl)c1)c1ccc(Cl)c(Cl)c1`, the T/C reads like this: under setting [6], 95 % of control; under setting [7], 91 % of control.

In the case of `CC1(C)OCC(C(O)C(OC(=O)c2ccccc2)C2COC(C)(C)O2)O1` (stereo not given), the T/C under setting [8] is 106 % of control, the T/C under setting [9] is 94 % of control and the T/C under setting [10] was 105 % of control.

As for `CCCCCCCCCCCCCC(CCCCCCCCCC)CCCCCCCCCC`, the T/C under setting [8] was 98 % of control, the T/C under setting [9] is 103 % of control and the T/C under setting [10] is 104 % of control.

In the case of `N#CCC(C#N)N1CCOCC1` (stereo not given), the T/C was 98 % of control under setting [1], 102 % of control under setting [2] and 102 % of control under setting [3].

Regarding `Oc1ccc(/C=N/NC(=S)NN2CCOCC2)nc1`, the T/C (dose: 3.12 mg/kg/injection, schedule: Q01DX009 (ip), vehicle: Klucel (hydroxypropylcellulose) (HPC)) is 103 % of control; the T/C (dose: 6.25 mg/kg/injection, schedule: Q01DX009 (ip), vehicle: Klucel (hydroxypropylcellulose) (HPC)) was 104 % of control; the T/C (dose: 12.5 mg/kg/injection, schedule: Q01DX009 (ip), vehicle: Klucel (hydroxypropylcellulose) (HPC)) is 101 % of control; the T/C (dose: 25.0 mg/kg/injection, schedule: Q01DX009 (ip), vehicle: Klucel (hydroxypropylcellulose) (HPC)) is 121 % of control; the T/C under setting [11] is 101 % of control; the T/C (dose: 50.0 mg/kg/injection, schedule: Q01DX009 (ip), vehicle: Klucel (hydroxypropylcellulose) (HPC)) was 95 % of control. The T/C under setting [6] was 91 % of control and 94 % of control.

For the compound `O=C(Oc1cccc(OC(=O)c2ccccc2)c1)c1ccccc1`, the T/C runs as follows: under setting [3], 100 % of control; (dose: 200.0 mg/kg/injection, schedule: Q01DX009 (ip), vehicle: saline with Tween-80) 97 % of control; (dose: 400.0 mg/kg/injection, schedule: Q01DX009 (ip), vehicle: saline with Tween-80) 95 % of control.

For the compound `CC1(C)N=C(N)N=C(N)N1c1ccc(OCCCCNC(=O)c2ccc(S(=O)(=O)F)cc2)c(Cl)c1`, the T/C was 110 % of control under setting [12]; 110 % of control under setting [1]; 119 % of control and 109 % of control under setting [2]; 104 % of control under setting [13]; 104 % of control under setting [6]; 104 % of control under setting [14].

In the case of `CC(C)c1ccc2c(c1)CCC1C(C)(CN)CCCC21C` (stereo not given) (tested in a mixture with another compound), the T/C (dose: 6.25 mg/kg/injection, schedule: Q01DX001 (ip), vehicle: saline with Tween-80) is 91 % of control; the T/C under setting [15] is 101 % of control; the T/C (dose: 12.5 mg/kg/injection, schedule: Q01DX001 (ip), vehicle: saline with Tween-80) was 96 % of control; the T/C under setting [12] is 101 % of control; the T/C (dose: 25.0 mg/kg/injection, schedule: Q01DX001 (ip), vehicle: saline with Tween-80) is 87 % of control; the T/C under setting [1] is 101 % of control.

On to `COc1cc(C(=O)N(C(C)C)C2CCCCC2)cc(OC)c1OC`, for which the T/C was 104 % of control under setting [4] and 96 % of control under setting [16].

In the case of `CC(=O)NCC1CCN(C(C)=O)CC1`, the T/C is 94 % of control under setting [5]; 96 % of control (dose: 200.0 mg/kg/injection, schedule: Q04DX003 (ip), vehicle: saline); 96 % of control (dose: 400.0 mg/kg/injection, schedule: Q04DX003 (ip), vehicle: saline).

On to `CC(=[N-])CC(C)=O.CC(=[N-])CC(C)=O.[Cu+2]`, for which the T/C runs as follows: (dose: 3.13 mg/kg/injection, schedule: Q01DX009 (ip), vehicle: saline with Tween-80) 100 % of control; under setting [15], 95 % of control; under setting [12], 90 % of control.

As to `O=Cc1c2ccccc2cc2ccccc12`, the T/C reads like this: (dose: 89.0 mg/kg/injection, schedule: Q01DX001 (ip), vehicle: saline) 170 % of control; (dose: 133.0 mg/kg/injection, schedule: Q01DX001 (ip), vehicle: saline) 167 % of control; (dose: 200.0 mg/kg/injection, schedule: Q01DX001 (ip), vehicle: saline) 162 % of control.

In the case of `O=S(=O)(Nc1ccc(CCc2ccc(NS(=O)(=O)c3ccccc3)cc2)cc1)c1ccccc1`, the T/C under setting [8] was 95 % of control, the T/C under setting [9] was 90 % of control and the T/C under setting [10] was 92 % of control.

Turning to `Nc1nc(=O)n2ccn(C3OC(CO)C(O)C3O)c2n1` (stereo not given), the T/C is, setting by setting: under setting [17], 103 % of control; under setting [18], 100 % of control; under setting [19], 100 % of control; under setting [20], 100 % of control; under setting [21], 103 % of control.

For `CCCCCCCCOc1ccc(Cl)cc1`, the T/C was 90 % of control under setting [6], 90 % of control under setting [14] and 93 % of control under setting [7].

As for `CSC(=S)N/N=C(\C)c1ccccn1`, the T/C reads like this: (dose: 25.0 mg/kg/injection, schedule: Q04DX003 (ip), vehicle: saline with Tween-80) 98 % of control; (dose: 50.0 mg/kg/injection, schedule: Q04DX003 (ip), vehicle: saline with Tween-80) 107 % of control; under setting [4], 110 % of control.

Take `O=C(O)CCC(=O)NNC(=O)c1cccnc1`: the T/C under setting [11] was 107 % of control; the T/C under setting [13] is 104 % of control; the T/C under setting [8] is 106 % of control; the T/C under setting [6] is 107 % of control; the T/C under setting [9] is 106 % of control; the T/C under setting [10] is 98 % of control.

`CCOc1cc(N)nc2c1nnn2C1OC(CO)C(O)C1O` (stereo not given): the T/C is 107 % of control (dose: 6.25 mg/kg/injection, schedule: Q01DX005 (ip), vehicle: other); 98 % of control (dose: 12.5 mg/kg/injection, schedule: Q01DX005 (ip), vehicle: other); 101 % of control (dose: 25.0 mg/kg/injection, schedule: Q01DX005 (ip), vehicle: other); 98 % of control (dose: 50.0 mg/kg/injection, schedule: Q01DX005 (ip), vehicle: other); 101 % of control (dose: 100.0 mg/kg/injection, schedule: Q01DX005 (ip), vehicle: other); 98 % of control (dose: 200.0 mg/kg/injection, schedule: Q01DX005 (ip), vehicle: other).

Turning to `CCCCCCCCCCCCCCCOc1ccc2ccccc2c1`, the T/C was 102 % of control (dose: 100.0 mg/kg/injection, schedule: Q01DX001 (ip), vehicle: Klucel (hydroxypropylcellulose) (HPC)); 94 % of control (dose: 200.0 mg/kg/injection, schedule: Q01DX001 (ip), vehicle: Klucel (hydroxypropylcellulose) (HPC)); 90 % of control (dose: 400.0 mg/kg/injection, schedule: Q01DX001 (ip), vehicle: Klucel (hydroxypropylcellulose) (HPC)).

Turning to `CC(=O)Nc1sc2c(c1C#N)CCCC2`, the T/C runs as follows: under setting [4], 93 % of control; under setting [16], 93 % of control; under setting [22], 101 % of control.

For `CO/N=C/c1ccc([N+](=O)[O-])s1`, the T/C (dose: 50.0 mg/kg/injection, schedule: Q01DX009 (ip), vehicle: saline) was 116 % of control.

In the case of `CCCCCCCCOc1ccc(Cl)cc1Cl`, the T/C is, setting by setting: under setting [6], 96 % of control; under setting [14], 104 % of control; under setting [7], 104 % of control.

On to `O=C(/C=C1/OCCN1C(=O)Nc1ccccc1)Nc1ccccc1`, for which the T/C by setting is: under setting [4], 107 % of control; under setting [16], 103 % of control; under setting [22], 97 % of control.

For `O=N/N=c1/c2[nH]cnc2ncn1O`, the T/C was 110 % of control under setting [17]; 93 % of control under setting [18]; 89 % of control under setting [19]; 88 % of control under setting [20]; 93 % of control under setting [21].
